Experimental data from patent publication US20230149409A1, “TREATMENT OF HUMAN PAPILLOMAVIRUS-ASSOCIATED CANCERS BY PD-L1 INHIBITORS” (priority 2021, published 2023).

Key:
[1] = test system: PD-L1 (U2OS/PD-L1 cells, Jurkat-PD-1-SHP cells); assay: Src Homology Region 2 Domain-containing Phosphatase (SHP) assay; assay type: cell-based; conditions: Homo sapiens; U2OS/PD-L1 + Jurkat-PD-1-SHP cells, 2 hours
Procedure, shortened: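 U2OS/PD-L1 cells and Jurkat-PD-1-SHP cells (5,000 each per well) were co-incubated with compound in RPMI1640/1% FBS for 2 h at 37° C, with final DMSO 0.05%. PathHunter chemiluminescence was read after 1 h at room temperature. IC50 was fitted from percent of DMSO-control activity against log concentration.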

[2] = target: T1, PD-⅟PD-L1 (recombinant human PD-L1 protein and human PD-1 protein) (Homo sapiens, UniProt Q9NZQ7); assay: Homogeneous Time-Resolved Fluorescence (HTRF) PD-1/PD-L1 binding assay; conditions: 3 nM PD1, 10 nM PD-L1, 25° C., PBS pH 7.4
T1 construct: Recombinant human PD-L1 protein (19-238) with a His-tag at the C-terminus; purchased AcroBiosystems PD1-H5229 (PD-L1); PD1-H5257 (PD-1)
T1 sequence (Q9NZQ7 19-238): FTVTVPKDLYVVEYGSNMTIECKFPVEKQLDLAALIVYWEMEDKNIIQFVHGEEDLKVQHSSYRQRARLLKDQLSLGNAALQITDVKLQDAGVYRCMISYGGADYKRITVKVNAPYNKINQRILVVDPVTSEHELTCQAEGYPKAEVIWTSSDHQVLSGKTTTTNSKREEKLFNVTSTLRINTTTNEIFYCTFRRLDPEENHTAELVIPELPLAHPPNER

[3] = test system: PD-L1 (PD-L1 aAPC/CHO-K1 cells, Jurkat-PD-1-NFAT effector cells); assay: Nuclear Factor of Activated T-cells (NFAT) assay; assay type: cell-based; conditions: Cricetulus griseus; PD-L1 aAPC/CHO-K1 + Jurkat-PD-1-NFAT cells, 24 hours
Procedure, shortened: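 PD-L1 aAPC/CHO-K1 cells (8000/well) were treated with compound (0.4% DMSO, 2 µM final), then co-cultured with Jurkat-PD-1-NFAT effector cells for 24 hours at 37° C. NFAT luciferase luminescence was normalized to DMSO as fold induction. Maximum induction is relative to the control compound's top FOI; EC50 is from curve fitting.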

[4] = target: T2, PD-L1 on CD14+ cells in human whole blood (Homo sapiens, UniProt Q9NZQ7); assay: PD-L1 whole blood internalization assay; assay type: cell-based; conditions: 1 ng/mL interferon γ, CD14+ gated, 24 hour
T2 construct: Cells were gated on CD14+ (BD Biosciences) and PD-L1 expression determined by mean fluorescence intensity; host or cells: CD14+ cells in normal human whole blood, stimulated with human interferon gamma
T2 sequence (Q9NZQ7 19-290): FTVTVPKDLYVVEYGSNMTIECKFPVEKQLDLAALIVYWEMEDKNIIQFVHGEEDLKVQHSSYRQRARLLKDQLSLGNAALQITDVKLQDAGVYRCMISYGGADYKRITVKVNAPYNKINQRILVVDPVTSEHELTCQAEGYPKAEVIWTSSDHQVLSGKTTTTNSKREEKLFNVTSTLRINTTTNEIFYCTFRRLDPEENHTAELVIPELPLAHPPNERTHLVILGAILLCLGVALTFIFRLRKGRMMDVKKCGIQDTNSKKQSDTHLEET
Procedure, shortened: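 Normal human whole blood exposed to compound concentration range plus 1 ng/mL IFN-γ for 18–20 h at 37 °C, then stained for PD-L1 and CD14, red cells lysed/fixed. PD-L1 MFI measured on CD14+ gated cells by flow cytometry; IC50 from percent inhibition versus log concentration fit.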

Structure (SMILES)	IC50 [1] [nM]	IC50 [2] [nM]	EC50 [3] [nM]	IC50 [4] [nM]
Cc1c(NC(=O)c2nc3c(n2C)CCN(CCC24CCC(C(=O)O)(CC2)C4)C3)cccc1-c1cccc(NC(=O)c2nc3c(n2C)CCN(CCC24CCC(C(=O)O)(CC2)C4)C3)c1Cl [Compound 32, 4,4′-(((((2-chloro-2′-methyl-[1,1′-biphenyl]-3,3′-diyl)bis(azanediyl))bis(carbonyl))bis(1-methyl-1,4,6,7-tetrahydro-5H-imidazo[4,5-c]pyridine-2,5-diyl))bis(ethane-2,1-diyl))bis(bicyclo[2.2.1]heptane-1-carboxylic acid)]	< 10	< 10	< 100	< 100
CCN(C)CC(=O)N1Cc2nc(-c3cccc(-c4cccc(NC(=O)c5nc6c(n5C)CCN(C[C@H]5CC[C@H](C(=O)O)CC5)C6)c4Cl)c3C)sc2C1 [Compound 20, trans-4-((2-(2-chloro-3′-(5-(2-(ethyl(methyl)amino)acetyl)-5,6-dihydro-4H-pyrrolo[3,4-d]thiazol-2-yl)-2′-methylbipheiryl-3-ylcarbamoyl)-1-methyl-6,7-dihydro-1H-imidazo [4,5-c]pyridin-5 (4H)-yl)methyl)cyclohexane-1-carboxylic acid]	< 10	< 10	< 500	< 500
Cc1c(Nc2nc(C(F)F)nc3cc(CN4CC[C@@H](O)C4)cnc23)cccc1-c1cccc(NC(=O)c2nc3c(n2C)CCN(CCC24CCC(C(=O)O)(CC2)C4)C3)c1Cl [Compound 34, (R)-4-(2-(2-((2-chloro-3′-((2-(difluoromethyl)-7-((3-hydroxypyrrolidin-1-yl)methyl)pyrido[3,2-d]pyrimidin-4-yl)amino)-2′-methyl-[1,1′-biphenyl]-3-yl)carbamoyl)-1-methyl-1,4,6,7-tetrahydro-5H-imidazo[4,5-c]pyridin-5-yl)ethyl)bicyclo[2.2.1]heptane-1-carboxylic acid]	< 10	< 10	< 10	< 10
